# Source: publication PMC9053583, “A novel series of phenolic temozolomide (TMZ) esters with 4 to 5-fold increased potency, compared to TMZ, against glioma cells irrespective of MGMT expression” (RSC Advances, 2020)
# Read-outs that look alike come from different tables or passages of the source.
# Assays:
# SVGp12 = assay: CellTiter-Glo cytotoxicity against normal SVGp12 cell line; format: cell-based; conditions: Homo sapiens, 144 hours incubation, IC50 ± SD (n = 3)
# Description: (§1) Apoptosis of glioma cells induced by TMZ, occurs at least 120 hours after treatment.[7] Consequently, cells were incubated for 144 hours with specified TMZ analogues in the in vitro investigations in order to obtain more reliable IC50 values.
# (§2) 1321-N1 (human astrocytoma) was maintained in DMEM medium supplemented with 2 mM L-glutamine and 10% FBS. GOS-3, (human brain mixed astro-oligodendroglioma) was maintained in DMEM medium supplemented with 2 mM L-glutamine and 10% […]. U87-MG, (human glioblastoma) and SVGp12 (normal human astroglia) were maintained in EMEM medium supplemented with 2 mM L-glutamine, 1 mM sodium pyruvate and 10% FBS. All cell lines were incubated at 37 °C and 5% CO2 in a humidified incubator. Primary BTNW cultures were maintained in Ham's F10 nutrient mixture, containing 20 mM HEPES, 2 mM glutamine and 10% FBS. Primary cultures were incubated in a humidified incubator at 37 °C.
# (§3) Cells were seeded in the appropriate media in each well of a Costar 96-well plate at a density of 5 × 10^2 immortalised cells; 2 × 10^3 (primary cells). The plates were incubated at 37 °C and 5% CO2 in a humidified incubator for 24 hours to allow cells to adhere. Each of the drugs tested were dissolved in DMSO to afford a 200 mM stock solution. The stock solutions were diluted with medium to afford the final working concentrations, ensuring DMSO concentration was no greater than 0.5% (v/v). Drug concentrations were added to the cells and incubated for 144 hours. After incubation, the drug concentrations were removed and replaced with 100 μL of CellTiter-Glo® and 100 μL of media. The luminescence of each well was measured on GENios Pro plate reader. The results for each of the drug concentrations were expressed as a percentage of the control wells. For cell lines, the regression equation for a polynomial line of best fit of order 2 was used to calculate the IC50. In the case of the in vitro model used in the present study, the IC50 was defined as the concentration of drug that results in a 50% reduction in oxyluciferin production. Primary culture cells were incubated with clinically relevant concentrations for 144 hours. Viability was expressed as a percentage of the control wells. Each experiment involving cell lines was carried out in triplicate of triplicates. Experiments using patient derived primary cultures were carried out in triplicate.
# (§4) Initial screening of the 25 analogues was completed using the U87-MG cell line. The most promising analogues from the initial screening were taken forward and tested against the 1321-N1, GOS-3 and SVG-p12 cell lines. The results of all 4 cell lines were compiled and the analogues that were deemed to be the most promising drug candidates were tested against primary cultures at clinically relevant concentrations.
# BTNW374 (MGMT+) = assay: Cell viability of patient derived primary GBM culture BTNW374 (MGMT+); format: cell-based, human
# Description: (§5) Fig. 2 (A) Cell viability of BTNW914 (MGMT−) after treatment by TMZ and phenyl TMZ ester analogues at various clinically relevant concentrations and incubation for 6 days. (B) Cell Viability of BTNW374 (MGMT+) after treatment by TMZ and phenyl TMZ ester analogues at various clinically relevant concentrations. Values are reported as the percentage of viable cells ± SD, n = 3.
# (§6) Cytotoxic evaluation of the analogues was completed against 4 cell lines and 2 primary GBM cultures. The human glioma cell lines, GOS-3, U87-MG and 1321-N1 along with the human astroglial cell line, SVGp12, were purchased from The European Collection of Cell Cultures (ECCAC, UK) and Deutsche Sammlung von Mikroorganismen und Zellkulturen (DMSZ, Germany). Patient derived primary GBM cultures, BTNW374 and BTNW914, were obtained from The Brain Tumour North West Tissue Bank in collaboration with The Royal Preston Hospital. Patient data for primary cells was included as part of the ESI. ^†
# as §2, §3
# BTNW914 (MGMT−) = assay: Cell viability of patient derived primary GBM culture BTNW914 (MGMT−); format: cell-based, human; conditions: 6 days incubation; for IC50: Homo sapiens, 144 h, read-out: IC50 against MGMT devoid GBM primary cells
# Description: as §5, §6, §2, §3
# 1321-N1 = assay: CellTiter-Glo cytotoxicity against 1321-N1 cells; format: cell-based; conditions: Homo sapiens, 144 hours incubation, IC50 ± SD (n = 3)
# Description: as §1, §2, §3, §4
# [1] = system: porcine liver esterase (PLE); assay: Stability of phenolic TMZ esters on exposure to porcine liver esterase; format: in vitro ADME; conditions: pH 6, 37 °C
# Description: The hydrolysis was monitored by the decrease in the peak area of the corresponding TMZ esters, however, due to sensitivity of the imidazotetrazine ring to pH, the experiments were carried out at pH 6 to avoid the formation of imidazoles. The validation of the analytical method also involved investigating the stability of the imidazotetrazine ring whilst ensuring PLE retained a significant level of activity.
# A disodium phosphate, citric acid buffer (pH 6) was prepared by using disodium phosphate (Na2HPO4·12H2O, 200 mM) and citric acid (100 mM). A stock solution of 80 mg/100 mL of each of the TMZ esters (3h, 3i, 3j, 3k, 3l and 3n) were prepared in DMSO. The control reaction, without enzyme, was prepared by adding 3000 μL of buffer to the reaction vessel along with 56.25 μL of the stock solution. The test reaction, with enzyme, was prepared by adding 2999 μL of buffer to the reaction vessel along with 56.25 μL of TMZ ester. The final concentration of TMZ esters in the reaction vessels was 1.47 mg/100 mL. Porcine liver esterase (1 μL) was added to the test reaction at zero time (minutes). Both the control and test reactions were then incubated at 37 °C. Aliquots of 200 μL were transferred from the reaction vessels to 2 mL Eppendorf tubes, at 3 minute intervals for 30 minutes. The reaction was quenched by adding 200 μL of acetonitrile. […]
# U87-MG cells = assay: CellTiter-Glo cytotoxicity against U87-MG cells; format: cell-based; conditions: Homo sapiens, U-87 MG, 144 hours incubation, IC50 ± SD (n = 3)
# Description: as §1, §2, §3, §4
# GOS-3 = assay: CellTiter-Glo cytotoxicity against GOS-3 cells; format: cell-based; conditions: Homo sapiens; 144 hours incubation, IC50 ± SD (n = 3)
# Description: as §1, §2, §3, §4
# [2] = cited from earlier work
# [3] = initial screening, CellTiter-Glo, read-out: IC50 against U87-MG cells
# [4] = lead analogues (Table 2), read-out: IC50 U87-MG
Structure (SMILES),melting point [°C],Time taken to hydrolyse 50% of the ester [1] [min],IC50 (SVGp12) [µM],"cytotoxicity against MGMT positive patient derived primary culture (BTNW374 (MGMT+); human, 144 h, 75 μM)",IC50 (BTNW914 (MGMT−)) [µM],IC50 (1321-N1) [µM],IC50 (U87-MG cells; [3]) [µM],IC50 (U87-MG cells; [4]) [µM],IC50 (GOS-3) [µM],"cytotoxicity against MGMT positive patient derived primary culture (BTNW374 (MGMT+); BTNW374, clinically relevant concentrations up to 75 μM)",reduction of viability of MGMT devoid cells (BTNW914 (MGMT−); at 15 and 75 μM),brain-tumour concentration [2] [µM],brain-tumour concentration as share of plasma concentration [2],time frame of maximum intracranial concentration [2],reduction in viability against MGMT devoid GBM cells (BTNW914 (MGMT−); at 75 μM)
"COc1ccc(OC(=O)c2ncn3c(=O)n(C)nnc23)cc1 [Analogue 3h, 4-Methoxyphenyl 3-methyl-4-oxo-3,4-dihydroimidazo [5,1-d][1,2,3,5] tetrazine-8-carboxylate]",172,7.3,44 ± 2,generated cytotoxicity at 75 μM,< 15,183 ± 1,134 ± 7,134 ± 7,183 ± 5,,,,,,
"Cn1nnc2c(C(N)=O)ncn2c1=O [TMZ, 3-methyl-4-oxo-imidazo[5,1-d][1,2,3,5]tetrazine-8-carboxamide, reference compound]",,,239 ± 6,,,783 ± 40,696 ± 79,621 ± 66,696 ± 16,TMZ resistance,approximately 20%,15,approximately 20%,approximately 2 ± 0.8 hours,
"Cn1nnc2c(C(=O)Oc3ccc(Cl)cc3)ncn2c1=O [Analogue 3j, 4-Chlorophenyl 3-methyl-4-oxo-3,4-dihydroimidazo [5,1-d][1,2,3,5] tetrazine-8-carboxylate]",164,,33 ± 1,generated cytotoxicity at 75 μM,< 15,118 ± 11,96 ± 3,96 ± 3,54 ± 4,,,,,,

# More lines, main results first:
melting point [°C],Time taken to hydrolyse 50% of the ester [1] [min],Structure (SMILES),IC50 (SVGp12) [µM],"cytotoxicity against MGMT positive patient derived primary culture (BTNW374 (MGMT+); human, 144 h, 75 μM)",IC50 (BTNW914 (MGMT−)) [µM],IC50 (1321-N1) [µM],IC50 (U87-MG cells; [3]) [µM],IC50 (U87-MG cells; [4]) [µM],IC50 (GOS-3) [µM],"cytotoxicity against MGMT positive patient derived primary culture (BTNW374 (MGMT+); BTNW374, clinically relevant concentrations up to 75 μM)",reduction of viability of MGMT devoid cells (BTNW914 (MGMT−); at 15 and 75 μM),brain-tumour concentration [2] [µM],brain-tumour concentration as share of plasma concentration [2],time frame of maximum intracranial concentration [2],reduction in viability against MGMT devoid GBM cells (BTNW914 (MGMT−); at 75 μM)
192,13.7,"Cn1nnc2c(C(=O)Oc3ccc(C#N)cc3)ncn2c1=O [Analogue 3k, 4-Cyanophenyl 3-methyl-4-oxo-3,4-dihydroimidazo[5,1-d][1,2,3,5]tetrazine-8-carboxylate]",36 ± 3,generated cytotoxicity at 75 μM,< 15,103 ± 7,138 ± 7,137 ± 7,151 ± 4,,,,,,
164,,"Cc1ccc(OC(=O)c2ncn3c(=O)n(C)nnc23)cc1 [Analogue 3n, p-Tolyl 3-methyl-4-oxo-3,4-dihydroimidazo[5,1-d][1,2,3,5]tetrazine-8-carboxylate]",215 ± 26,generated cytotoxicity at 75 μM,,238 ± 8,376 ± 62,376 ± 62,314 ± 38,,,,,,greater than 50%
